Measured values from patent US20250288583A1, “Treatment of Mucus Hypersecretion” (priority 2024, published 2025).
“Also recorded” adds a separate entry of the source.

Key:
ostiomeatal complex = test: Case studies: nebulized cooling agent in subjects with rhinitis and rhinosinusitis; assay type: in vivo, human; details: for Relief of stuffiness and breathing: NasoNeb delivery in subjects with rhinosinusitis
Description: Eight subjects with rhinitis and rhinosinusitis volunteered to test cooling agents delivered with the NasoNeb® nebulizer (FIG. 3). The results were clear, robust, and evident. No statistical analysis was necessary. In a 3 to 5-day course of nebulization t.i.d., all subjects reported the ability to manage and control stuffed-up breathing in their activities. All reported comfortable sleep. The sounds of sniffling and congestion of the nose (“sniffles”), snorting, or gurgling were still present, but to a lesser degree. The subject felt it was easier to blow out liquids from the nasal cavity onto a tissue, and the volume and frequency of blowing decreased. Viscous yellow mucus was less in volume and density. The number of wipes deposited daily into a waste basket decreased by >50%. The subjects-were cheerful and enthusiastic because nasal discomfort was under control. As one subject remarked: “The stuffed-up nose problem is now history!” Severat of these cases are reported below as “Case Studies.”
The subject was given a NasoNeb® nebulizer (unavailable in China) and five individual bottles containing 15 mL of a 1% GlyOiPr solution (suspended in 2% Tween 80, 5% ethanol, and 92% water). They were shown how to load the NasoNeb canister with about 2 mL of liquid and activate the device for a 3-second dose into each nostril. The recommended dosage was three times a day, starting in the morning and at about 6-hour intervals, and for five days.
The subject agreed to using the NasoNeb nebulizer with a cooling agent. They were given a NasoNeb nebulizer and three bottles, each containing 15 ml of a 1% GlyOiPr solution (suspended in 2% Tween 80, 5% ethanol, and 92% water). They were shown how to load the NasoNeb canister with about 2 mL of liquid and activate the device for a 3-second dose into each nostril. The recommended dosage was three times a day, starting in the morning and at about 6-hour intervals, and for five days. After a 5-day trial, the subject noted a significant improvement in sleep and comfortable breathing. […] Their headaches were gone, and their appetite improved. They were advised to continue using the Nebulizer/coolant for another week and then on an as-needed basis. Their family has noticed that the subject has become less withdrawn, more engaging, and interested in their surroundings.
The subject volunteered for a trial with GlyOiPr. They were given a NasoNeb® machine and a plastic squeeze bottle containing 50 mL of GlyOiPr at 3 mg/mL suspended in 1% ethanol/2% polysorbate 80. They learned how to load the canister and activate the pump. Then, they were instructed to rinse their nose thoroughly first thing in the morning and then use the Nebulizer at 5 sec per nostril to deliver the solution. The procedure was to be repeated at 2 hours and 5 hours later to total three daily activations. The subject was interviewed after dosing for three days. They said breathing was much easier at night after the dosing, and they slept well. Nasal secretions were still present but less in volume. […] They were encouraged to use the Nebulizer as needed but not to exceed three daily doses. Three weeks after the start of the experiment, they reported that they were in complete control of their rhinitis. They would do a single dose at night before sleep and one in the morning when needed. They no longer felt congested, and the headaches were gone. The slimy phlegm in the nostrils was gone, and crusting was absent. Their nose felt clean. Their social life improved.
Their main complaint was episodes at night when they would wake up and not be able to breathe comfortably. Sleep apnea and lung disorders were ruled out, and the diagnosis was rhinosinusitis. This was confirmed by a computerized tomography scan and endoscopic examination by a qualified ENT specialist. They agreed to test the preferred embodiments GlyOnPr, GlyOiPr, D-Ala-OnPr, and D-Ala-OiPr systematically, one after the other.

nasal cavity = test: Gravimetric measurement of nasal secretions in a subject with rhinitis after NasoNeb rinsing; assay type: in vivo, human; details: NasoNeb rinse 5 sec at t=0, 2, 5 hr, D-Ala-OiPr 2 mg/mL, GlyOiPr 3 mg/mL; for Weight of individual blowouts of nasal secretions (average ± s.e.m.): vehicle 0.40±0.03 g; for 10-hr nasal secretion (avg. ± s.e.m): vehicle 3.53±0.44 g
Experimental: A top-loading balance, sensitive to 1 mg, was used to measure phlegm secretions from the nose. A pre-weighed tissue paper was tared to zero, and after blowing into the tissue, the amount of exudate was recorded from the balance display. This measurement is an objective sign of nasal inflammation. Microbalances, sensitive to 1 mg, are now available online for less than $20. Conventional laboratory balances with the same capabilities are listed for $2000+ each but should now be obsolete. The convenience of an inexpensive method for quantifying phlegm output as an indicator of nasal pathology is part of the inventive steps.
FIG. 9. Inhibition of nasal secretions in a subject with rhinitis by topical administration of the preferred embodiments D-Ala-OiPr and GlyOiPr with a Nasoneb® apparatus. Rinsing of GlyOiPr and D-Ala-OiPr (dissolved 3 mg/ml and 2 mg/mL, respectively, in 1% ethanol and 2% polysorbate 80) was for 5 sec at t=0, 2, and 5 hr. Secretions were recorded for 10-15 hr per day. The 10-hr secretion (avg.±s.e.m) was vehicle 3.53±0.44 g, D-Ala-OiPr 1.70±0.27 g, GlyOiPr 1.32±0.32 g, with n=6, 5, 5 observations per group, respectively.
FIG. 10. Weights of individual blowouts of nasal secretions in a subject with rhinitis after topical administration of D-Ala-OiPr and GlyOiPr with a Nasoneb® apparatus. The vehicle or test substances were rinsed into the nasal cavity (0 mg/mL, 2 mg/mL and 3 mg/mL, respectively, for 5 sec at t=0, 2, and 5 hr). The data points are for individual “blowouts” from the nose, measured with tissue paper and balance. The data are plotted on a semi-log scale, so zero values are not shown. The average #s.e.m. for blowouts were: vehicle 0.40±0.03 g, D-Ala-OiPr 0.19±0.02 g, GlyOiPr 0.19±0.02 g, with n=70, 44, 42 observations per group, respectively.
In the first experimental step, the phlegm secretion must be accurately measured. That is, it is necessary to show what is “blown out” of the nose in patients with rhinitis (FIG. 8). The treatment goal is to reduce the accumulation of dense, slimy, viscous phlegm, which will otherwise ooze out of the nasal cavity. In practice, it was discovered that if treatment can reduce individual blowouts to <0.25 g/event, the subject with rhinitis becomes essentially “disease-free” and is able to have normal daily activities and sleep well at night. […] The top-loading microbalance method for quantifying phlegm weight is an excellent monitor of rhinitis intensity.
FIG. 9. […] The data points represent secretions recorded for 10-15 hr per day. These points were fitted by linear regression (GraphPad Prism), and the 10-hr secretion measured (avg.±s.e.m) as vehicle 3.53±0:44 g, D-Ala-OiPr 1.700:27 g; GlyOiPr 1.32±0.32 g, with n=6, 5, 5 observations per group, respectively. […]

Structure (SMILES)	Number of Kleenex tissues used after treatment (ostiomeatal complex; GlyOiPr by NasoNeb three times a day)	Relief of stuffiness and breathing (ostiomeatal complex)	Decrease in number of wipes used to blow the nose (ostiomeatal complex; nebulization three times a day, several days)	Weight of individual blowouts of nasal secretions (average ± s.e.m.) (nasal cavity)	10-hr nasal secretion (avg. ± s.e.m) (nasal cavity)
CC(C)OC(=O)CNC(=O)[C@@H]1C[C@H](C)CC[C@H]1C(C)C [GlyOiPr, [((1R,2S,5R)-2-isopropyl-5-methyl-cyclohexanecarbonyl)-amino]-acetic acid isopropyl ester]	about five per day; also recorded: decline by half	immediate sensation of comfortable cooling in the nose and the ability to have unimpeded breathing; also recorded: provided relief	at least 50%	0.19 ± 0.02 g	1.32±0.32 g
CC(C)OC(=O)[C@@H](C)NC(=O)[C@@H]1C[C@H](C)CC[C@H]1C(C)C [D-Ala-OiPr, (R)-2-[((1R,2S,5R)-2-isopropyl-5-methyl-cyclohexanecarbonyl)amino]-propionic acid i-propyl ester]		provided relief		0.19 ± 0.02 g	1.70±0.27 g
